For four compounds, EC50 results are on record in US8642591B2, “Composition containing amidine derivatives or carboxamide derivatives and steroids, as a medicament” (priority 2006, dated 2014).

The test relates to Human Skeletal Cells (SKM). Description: Protective effect on cell death induced by maitotoxin on human skeletal cells (SKM), WST-1 readout. In kind it is cell-based. The note with it: maitotoxin 24 h. The protocol:
The principle of the test is the following: maitotoxin is a toxin which causes the opening of the calcium channels of cells. The resulting intra-cellular flow of calcium is at the origin of the death of the cell. During this process of cell death, a cysteine-dependent protease, calpain, is activated, and an abundance of free radicals is produced. The test consists of incubating the cells in the presence of the composition to be tested, in order to delay or inactivate cell death and thus determine the protective effect.
The myoblasts are seeded at 2500 cells per well in 96-well plates in a DMEM 10% FCS (foetal calf serum) culture medium supplemented with amphotericin B, human recombinant epidermal growth factor and dexamethasone. Three days after seeding, the cells have adhered to the base of the well, the differentiation of the cells to myotubes is induced by adding 100 μl of DMEM F12 medium containing 2% horse serum. After three more days, 100 μl of compound to be tested are placed at the bottom of the well. After incubation for one hour at 37° C. under an atmosphere of 5% CO2, the maitotoxin (MTX) (Wako, ref: 131-10731) is added to evaluate the protective effect (concentration-effect) of the compound to be tested on cell death.
After an incubation time of 24 h, the culture medium is replaced by a DMEM 10% FCS medium supplemented by WST-1. […] The cells are incubated for 1 hour in the presence of WST-1. Then the number of live cells is determined using a Perkin-Elmer Wallac Envision 2101 device by reading the absorbance at 450 nm. The concentration-effect of the products on the cell survival rate is then calculated.
The CE50 is deduced by linear regression: concentration with respect to the percentage of protection. The mathematical method used is the isobologram approach described in: “Drug synergism and dose-effect data analysis, Ronald J. Tallarida, Chapman & Hall/CRC, 2000”.

Where a name gives a salt, the structure may show the parent alone. Read-outs that look alike come from different tables or passages of the source.

As for `CC(=O)OC1OCC[C@@H]1NC(=O)[C@H](CC(C)C)NC(=O)c1ccc2c(c1)Nc1ccccc1S2` (stereo partly drawn) [(3S)-3-{[N-(10H-phenothiazin-2-ylcarbonyl)-L-leucyl]amino}tetrahydrofuran-2-yl acetate], the EC50 (Homo sapiens, 24 h, read-out: EC50 μM After incubation for 24 h with the toxin, single substance (proportion 1), cell mortality rate induced by the toxin 97%) came out at 29.1 µM.

In the case of `CC(C)C[C@H](NC(=N)c1ccc2c(c1)Nc1ccccc1S2)C(=O)N[C@H]1CCOC1O` (stereo partly drawn) [Example 5, N^1-[(3S)-2-hydroxytetrahydrofuran-3-yl]-N^2-[imino(10H-phenothiazin-2-yl)methyl]-L-leucinamide hydroiodide], the EC50 (Homo sapiens, 24 h, read-out: EC50 μM After incubation for 24 h with the toxin, single substance (proportion 1), cell mortality rate induced by the toxin 84%) worked out at 6.26 µM.

Consider `CC(C)C[C@H](NC(=N)c1ccc2c(c1)Nc1ccccc1S2)C(=O)N[C@H]1CCOC1O` (stereo partly drawn) [Example 7, N^1-[(3S)-2-hydroxytetrahydrofuran-3-yl]-N^2-[imino(10H-phenothiazin-2-yl)methyl]-L-leucinamide hydrochloride], for which, where the note is “Homo sapiens, 24 h, read-out: EC50 μM After incubation for 24 h with the toxin, single substance (proportion 1), cell mortality rate induced by the toxin 96%”, the EC50 worked out at 5.92 µM.

Turning to `C[C@H]1C[C@@H]2[C@H]([C@@H](O)C[C@@]3(C)[C@H]2CC[C@]3(O)C(=O)CO)[C@@]2(C)C=CC(=O)C=C12` [α-methylprednisolone], the 50% effective concentration (EC50) runs as follows: (single substance (proportion 1), cell mortality rate induced by the toxin 84%, read-out: EC50 μM After incubation for 24 h with the toxin) 87.6 µM; (single substance (proportion 1), cell mortality rate induced by the toxin 96%, read-out: EC50 μM After incubation for 24 h with the toxin) 169 µM; (single substance (proportion 1), cell mortality rate induced by the toxin 97%, read-out: EC50 μM After incubation for 24 h with the toxin) 107 µM.
